Measurements published in patent US20250268909A1, “Combination Therapy” (US Oncology Corporate, Inc., priority 2022, published 2025).

Columns and labels:
Pgp = Pgp (Homo sapiens, UniProt P08183); conditions: cell culture model; cited from earlier work
[1] = phase II trial, dose modifications in ER+/ERBB2-negative cohort (safety population); format: in vivo, human; conditions: Arm 1 (paclitaxel plus alisertib), n=66
Description: Administration of 5 μg/kg filgrastim was allowed for treatment-limiting neutropenia, and loperamide was used to treat diarrhea but was not allowed prophylactically in cycle 1.
Incidence and grades of AEs for all patients were analyzed using the safety population which included all patients (eligible and ineligible) who received at least 1 dose of study drug. Toxic effects were reported and tabulated by numbers and frequencies for all related AEs. SAS statistical software version 9.4 (SAS Institute) was used for all data analysis. Data were analyzed from March through May 2019.

[2] = system: breast cancer xenograft models; conditions: alisertib added to either paclitaxel or docetaxel; cited from earlier work

Chain of Pgp (P08183 whole entry): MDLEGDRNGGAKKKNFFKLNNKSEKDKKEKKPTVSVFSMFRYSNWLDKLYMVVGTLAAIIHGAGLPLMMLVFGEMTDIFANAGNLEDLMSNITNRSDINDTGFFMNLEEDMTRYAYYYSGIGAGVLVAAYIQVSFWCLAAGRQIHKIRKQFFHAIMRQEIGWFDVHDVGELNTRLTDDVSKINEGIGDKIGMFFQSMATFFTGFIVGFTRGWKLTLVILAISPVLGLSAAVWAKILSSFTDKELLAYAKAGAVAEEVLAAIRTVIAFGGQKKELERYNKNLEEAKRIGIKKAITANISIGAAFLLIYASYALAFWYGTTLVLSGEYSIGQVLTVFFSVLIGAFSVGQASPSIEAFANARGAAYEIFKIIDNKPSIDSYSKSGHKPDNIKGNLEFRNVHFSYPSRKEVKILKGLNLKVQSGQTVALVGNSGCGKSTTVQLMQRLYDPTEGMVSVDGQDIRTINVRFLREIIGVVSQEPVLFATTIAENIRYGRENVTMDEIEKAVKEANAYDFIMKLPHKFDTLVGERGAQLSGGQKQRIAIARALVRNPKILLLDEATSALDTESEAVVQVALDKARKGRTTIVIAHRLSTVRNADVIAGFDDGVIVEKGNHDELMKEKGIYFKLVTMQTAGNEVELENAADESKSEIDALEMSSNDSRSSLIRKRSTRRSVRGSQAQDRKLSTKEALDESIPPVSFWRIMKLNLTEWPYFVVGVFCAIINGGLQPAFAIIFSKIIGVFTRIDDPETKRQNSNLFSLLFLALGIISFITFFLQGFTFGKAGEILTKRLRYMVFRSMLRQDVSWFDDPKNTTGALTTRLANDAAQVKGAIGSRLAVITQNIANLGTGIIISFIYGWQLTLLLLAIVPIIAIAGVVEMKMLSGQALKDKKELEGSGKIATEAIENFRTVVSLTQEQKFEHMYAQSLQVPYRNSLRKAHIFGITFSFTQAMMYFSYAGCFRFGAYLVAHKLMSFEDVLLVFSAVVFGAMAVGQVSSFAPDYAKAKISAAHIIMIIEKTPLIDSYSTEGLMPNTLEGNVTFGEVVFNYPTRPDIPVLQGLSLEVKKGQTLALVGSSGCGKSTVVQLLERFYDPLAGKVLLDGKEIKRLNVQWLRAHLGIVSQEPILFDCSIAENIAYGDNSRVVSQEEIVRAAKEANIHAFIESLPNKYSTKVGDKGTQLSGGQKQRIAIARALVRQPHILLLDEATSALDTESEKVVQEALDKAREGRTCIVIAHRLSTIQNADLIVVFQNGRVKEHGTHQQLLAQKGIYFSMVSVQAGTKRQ

For `COc1cc(Nc2ncc3c(n2)-c2ccc(Cl)cc2C(c2c(F)cccc2OC)=NC3)ccc1C(=O)O` [Alisertib, 4-{[9-chloro-7-(2-fluoro-6-methoxyphenyl)-5H-pyrimido[5,4-d][2]benzazepin-2-yl]amino}-2-methoxybenzoic acid], the “Pgp-mediated efflux of paclitaxel” value (Pgp) is listed as “inhibited Pgp-mediated efflux of paclitaxel”, the “Patients with both dose delay and reduction” value [1] is listed as “(62.1) %” and the “Patients with dose delay alone” value [1] is listed as “(18.2) %”. The “Patients with dose discontinuation” value [1] was “(30.3) %”, the “Patients with dose increased” value [1] was “(1.5) %” and the “Patients with dose reduction alone” value [1] was “(7.6) %”. For the same compound, the “Patients with both dose delay and reduction” value ([1]; listed as alisertib) was 62.1% and the “effect of combination in breast cancer xenograft models” value [2] was “Synergistic or additive effects”.
